Measured values published in US20230143604A1, “QW DOSING OF GIP RECEPTOR AGONIST PEPTIDE COMPOUNDS AND USES THEREOF” (TAKEDA PHARMACEUTICAL COMPANY LIMITED, priority 2020, published 2023).
Like-named read-outs stand apart in the source and are kept apart here.

Columns and labels:
human GLP-1R = molecular target: T1, human GLP-1R (Homo sapiens, UniProt P43220); experiment: Human GLP1R agonist activity, intracellular cAMP accumulation; assay type: cell-based; settings: HEK-293T cells overexpressing human GLP-1R, 1 hr
T1 construct: HEK-293T cells overexpressing full-length human GLP-1R; FLAG (N); host or cells: HEK-293T
Experimental: Cells are cultured per the manufacturer's protocol in DMEM with 10% fetal bovine serum and 1 μg/mL puromycin and stored in frozen aliquots to be used as assay ready cells. On the day of the assay, cells are removed from frozen storage, washed two times in 1× Kreb's Ringer Buffer (Zenbio, Research Triangle Park, N.C.), and re-suspended to a concentration of 4×10^5 cells/mL in 1× Kreb's Ringer Buffer. […] Cells are incubated with test compound for 1 hr at room temperature in the dark, and cAMP accumulation is measured using the Cisbio HiRange cAMP assay kit (Bedford, Mass.) per the manufacturer's protocol. Anti-cAMP antibody and d2-cAMP tracer reagents diluted in lysis/detection buffer are incubated in the dark for 1 hr, and results are measured on an Envision plate reader (Perkin Elmer, Waltham, Mass.). Data is normalized using 1 nm GLP-1 as 100% activity, and DMSO alone as 0% activity.

[1] = Solubility in phosphate buffer pH 7.4
Method in brief: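 3 mg of peptide treated with 100 μL portions of 200 mM phosphate buffer pH 7.4, sonicating/vortexing up to 1 min, with further buffer added until fully dissolved. Solubility then quantified by HPLC.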

[2] = Human GLP1R cAMP EC50, HEK293T (nM)
[3] = pH 7.4, aqueous buffer, pH 7.4 Phosphate Buffer - Solubility, 200 mM Phosphate buffer pH 7.4
[4] = pH 7.4, solubility in phosphate buffer at pH 7.4, 200 mM phosphate buffer pH 7.4
[5] = read-out: Human GLP1R cAMP EC50, HEK293T

T1 sequence (P43220 24-463): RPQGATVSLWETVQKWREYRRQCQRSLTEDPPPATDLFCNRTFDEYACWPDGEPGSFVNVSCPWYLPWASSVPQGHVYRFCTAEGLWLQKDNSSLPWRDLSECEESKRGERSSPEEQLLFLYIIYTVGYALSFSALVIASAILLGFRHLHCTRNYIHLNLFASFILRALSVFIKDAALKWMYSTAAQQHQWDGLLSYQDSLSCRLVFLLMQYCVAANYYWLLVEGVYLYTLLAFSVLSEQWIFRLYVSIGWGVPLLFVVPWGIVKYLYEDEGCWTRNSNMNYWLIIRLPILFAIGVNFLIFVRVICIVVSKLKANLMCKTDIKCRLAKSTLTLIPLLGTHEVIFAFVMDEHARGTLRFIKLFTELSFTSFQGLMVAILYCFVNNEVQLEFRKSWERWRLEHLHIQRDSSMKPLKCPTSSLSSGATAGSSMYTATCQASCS

| SMILES | EC50 (human GLP-1R; [2]) [nM] | solubility [1, 3] [mg/mL] | solubility [1, 4] [mg/mL] | EC50 (human GLP-1R; [5]) [nM] | solubility ([1]; pH 7.4) [mg/mL] | solubility ([1]; pH 7.4, aqueous buffer) [mg/mL] |
| --- | --- | --- | --- | --- | --- | --- |
| CC[C@H](C)[C@H](NC(=O)[C@H](Cc1ccccc1)NC(=O)[C@@H](NC(=O)CNC(=O)[C@H](CCC(=O)O)NC(=O)C(C)(C)NC(=O)[C@H](Cc1ccc(O)cc1)NC)[C@@H](C)O)C(=O)N[C@@H](CO)C(=O)N[C@@H](CC(=O)O)C(=O)N[C@@H](Cc1ccc(O)cc1)C(=O)N[C@@H](CO)C(=O)N[C@H](C(=O)NC(C)(C)C(=O)N[C@@H](CCCCNC(=O)CNC(=O)CNC(=O)CNC(=O)CNC(=O)CNC(=O)CCCCCCCCCCCCCCCC(=O)O)C(=O)N[C@@H](CC(=O)O)C(=O)N[C@@H](CCCNC(=N)N)C(=O)NC(C)(C)C(=O)N[C@@H](C)C(=O)N[C@@H](CCC(N)=O)C(=O)NC(C)(C)C(=O)N[C@@H](CC(N)=O)C(=O)N[C@@H](Cc1ccccc1)C(=O)N[C@H](C(=O)N[C@@H](CC(N)=O)C(=O)N[C@@H](Cc1c[nH]c2ccccc12)C(=O)N[C@@H](CC(C)C)C(=O)N[C@@H](CC(C)C)C(=O)N[C@@H](C)C(=O)N[C@@H](CCC(N)=O)C(=O)N[C@@H](CO)C(=O)N1CCC[C@H]1C(=O)N[C@@H](CO)C(=O)N[C@@H](CO)C(=O)NCC(=O)N[C@@H](C)C(=O)N1CCC[C@H]1C(=O)N1CCC[C@H]1C(=O)N1CCC[C@H]1C(=O)N[C@@H](CO)C(=O)O)C(C)C)[C@@H](C)CC [Compound 95] | 17.4 | ≥ 60 | ≥ 15 |  |  |  |
| CC[C@H](C)[C@H](NC(=O)[C@H](Cc1ccccc1)NC(=O)[C@@H](NC(=O)CNC(=O)[C@H](CCC(=O)O)NC(=O)C(C)(C)NC(=O)[C@H](Cc1ccc(O)cc1)NC)[C@@H](C)O)C(=O)N[C@@H](CO)C(=O)N[C@@H](CC(=O)O)C(=O)N[C@@H](Cc1ccc(O)cc1)C(=O)N[C@@H](CO)C(=O)N[C@H](C(=O)NC(C)(C)C(=O)N[C@@H](CCCCNC(=O)CNC(=O)CNC(=O)CNC(=O)CNC(=O)CNC(=O)CCCCCCCCCCCCCCCC(=O)O)C(=O)N[C@@H](CC(=O)O)C(=O)N[C@@H](CCCNC(=N)N)C(=O)NC(C)(C)C(=O)N[C@@H](C)C(=O)N[C@@H](CCC(N)=O)C(=O)NC(C)(C)C(=O)N[C@@H](CC(=O)O)C(=O)N[C@@H](Cc1ccccc1)C(=O)N[C@H](C(=O)N[C@@H](CC(N)=O)C(=O)N[C@@H](Cc1c[nH]c2ccccc12)C(=O)N[C@@H](CC(C)C)C(=O)N[C@@H](CC(C)C)C(=O)N[C@@H](C)C(=O)N[C@@H](CCC(N)=O)C(=O)N[C@@H](CCCNC(=N)N)C(=O)NCC(=O)O)C(C)C)[C@@H](C)CC [Compound 98] |  |  |  | 112 | ≥ 15 | ≥ 30 |
| CC[C@H](C)[C@H](NC(=O)[C@H](CO)NC(=O)[C@H](Cc1ccc(O)cc1)NC(=O)[C@H](CC(=O)O)NC(=O)[C@H](CO)NC(=O)[C@@H](NC(=O)[C@H](Cc1ccccc1)NC(=O)[C@@H](NC(=O)CNC(=O)[C@H](CCC(=O)O)NC(=O)C(C)(C)NC(=O)[C@H](Cc1ccc(O)cc1)NC)[C@@H](C)O)[C@@H](C)CC)C(=O)N[C@@H](C)C(=O)N[C@@H](CCCCNC(=O)CNC(=O)CNC(=O)CNC(=O)CNC(=O)CNC(=O)CCCCCCCCCCCCCCCCCCC(=O)O)C(=O)N[C@@H](CC(=O)O)C(=O)N[C@@H](CCCNC(=N)N)C(=O)NC(C)(C)C(=O)N[C@@H](C)C(=O)N[C@@H](CCC(N)=O)C(=O)NC(C)(C)C(=O)N[C@@H](CC(N)=O)C(=O)N[C@@H](Cc1ccccc1)C(=O)N[C@H](C(=O)N[C@@H](CC(N)=O)C(=O)N[C@@H](Cc1c[nH]c2ccccc12)C(=O)N[C@@H](CC(C)C)C(=O)N[C@@H](CC(C)C)C(=O)N[C@@H](C)C(=O)N[C@@H](CCC(N)=O)C(=O)N[C@@H](CO)C(=O)N1CCC[C@H]1C(=O)N[C@@H](CO)C(=O)N[C@@H](CO)C(=O)NCC(=O)N[C@@H](C)C(=O)N1CCC[C@H]1C(=O)N1CCC[C@H]1C(=O)N1CCC[C@H]1C(=O)N[C@@H](CO)C(=O)O)C(C)C [Compound 112] | 21.4 | ≥ 30 | ≥ 15 |  |  |  |
| CC[C@H](C)[C@H](NC(=O)[C@H](CO)NC(=O)[C@H](Cc1ccc(O)cc1)NC(=O)[C@H](CC(=O)O)NC(=O)[C@H](CO)NC(=O)[C@@H](NC(=O)[C@H](Cc1ccccc1)NC(=O)[C@@H](NC(=O)CNC(=O)[C@H](CCC(=O)O)NC(=O)C(C)(C)NC(=O)[C@H](Cc1ccc(O)cc1)NC)[C@@H](C)O)[C@@H](C)CC)C(=O)N[C@@H](C)C(=O)N[C@@H](CC(C)C)C(=O)N[C@@H](CC(=O)O)C(=O)N[C@@H](CCCNC(=N)N)C(=O)N[C@@H](CCCCNC(=O)CNC(=O)CNC(=O)CNC(=O)CNC(=O)CNC(=O)CCCCCCCCCCCCCCCCC(=O)O)C(=O)N[C@@H](C)C(=O)N[C@@H](CCC(N)=O)C(=O)NC(C)(C)C(=O)N[C@@H](CC(=O)O)C(=O)N[C@@H](Cc1ccccc1)C(=O)N[C@H](C(=O)N[C@@H](CC(N)=O)C(=O)N[C@@H](Cc1c[nH]c2ccccc12)C(=O)N[C@@H](CC(C)C)C(=O)N[C@@H](CC(C)C)C(=O)N[C@@H](C)C(=O)N[C@@H](CCC(N)=O)C(=O)N[C@@H](CO)C(=O)N1CCC[C@H]1C(=O)NCC(=O)O)C(C)C [Compound 113] |  |  |  | 13.5 | ≥ 15 | ≥ 30 |
| CC[C@H](C)[C@H](NC(=O)[C@H](CO)NC(=O)[C@H](Cc1ccc(O)cc1)NC(=O)[C@H](CC(=O)O)NC(=O)[C@H](CO)NC(=O)[C@@H](NC(=O)[C@H](Cc1ccccc1)NC(=O)[C@@H](NC(=O)CNC(=O)[C@H](CCC(=O)O)NC(=O)C(C)(C)NC(=O)[C@H](Cc1ccc(O)cc1)NC)[C@@H](C)O)[C@@H](C)CC)C(=O)N[C@@H](C)C(=O)N[C@@H](CCCCNC(=O)CNC(=O)CNC(=O)CNC(=O)CNC(=O)CNC(=O)CCCCCCCCCCCCCCCCC(=O)O)C(=O)N[C@@H](CC(=O)O)C(=O)N[C@@H](CCCNC(=N)N)C(=O)NC(C)(C)C(=O)N[C@@H](C)C(=O)N[C@@H](CCC(N)=O)C(=O)N[C@@H](CCCNC(=N)N)C(=O)N[C@@H](CC(=O)O)C(=O)N[C@@H](Cc1ccccc1)C(=O)N[C@H](C(=O)N[C@@H](CCC(=O)O)C(=O)N[C@@H](Cc1c[nH]c2ccccc12)C(=O)N[C@@H](CC(C)C)C(=O)N[C@@H](CC(C)C)C(=O)N[C@@H](C)C(=O)N[C@@H](CCC(N)=O)C(=O)N[C@@H](CO)C(=O)N1CCC[C@H]1C(=O)NCC(=O)O)C(C)C [Compound 120] |  |  |  | 15.8 | ≥ 15 | ≥ 30 |
| CC[C@H](C)[C@H](NC(=O)[C@H](Cc1ccccc1)NC(=O)[C@@H](NC(=O)CNC(=O)[C@H](CCC(=O)O)NC(=O)C(C)(C)NC(=O)[C@@H](N)Cc1ccc(O)cc1)[C@@H](C)O)C(=O)N[C@@H](CO)C(=O)N[C@@H](CC(=O)O)C(=O)N[C@@H](Cc1ccc(O)cc1)C(=O)N[C@@H](CO)C(=O)N[C@H](C(=O)NC(C)(C)C(=O)N[C@@H](CCCCNC(=O)CNC(=O)CNC(=O)CNC(=O)CNC(=O)CNC(=O)CCCCCCCCCCCCCCCCC(=O)O)C(=O)N[C@@H](CC(=O)O)C(=O)N[C@@H](CO)C(=O)NC(C)(C)C(=O)N[C@@H](C)C(=O)N[C@@H](CCC(N)=O)C(=O)NC(C)(C)C(=O)N[C@@H](CC(=O)O)C(=O)N[C@@H](Cc1ccccc1)C(=O)N[C@H](C(=O)N[C@@H](CC(N)=O)C(=O)N[C@@H](Cc1c[nH]c2ccccc12)C(=O)N[C@@H](CC(C)C)C(=O)N[C@@H](CC(C)C)C(=O)N[C@@H](C)C(=O)N[C@@H](CCC(N)=O)C(=O)N[C@@H](CCCNC(=N)N)C(=O)NCC(=O)O)C(C)C)[C@@H](C)CC [Compound 150] |  |  |  | 13.5 | ≥ 15 | ≥ 30 |
| CC[C@H](C)[C@H](NC(=O)[C@H](Cc1ccccc1)NC(=O)[C@@H](NC(=O)CNC(=O)[C@H](CCC(=O)O)NC(=O)C(C)(C)NC(=O)[C@@H](N)Cc1ccc(O)cc1)[C@@H](C)O)C(=O)N[C@@H](CO)C(=O)N[C@@H](CC(=O)O)C(=O)N[C@@H](Cc1ccc(O)cc1)C(=O)N[C@@H](CO)C(=O)N[C@H](C(=O)NC(C)(C)C(=O)N[C@@H](CCCCNC(=O)CNC(=O)CNC(=O)CNC(=O)CNC(=O)CNC(=O)CCCCCCCCCCCCCCCCC(=O)O)C(=O)N[C@@H](CC(=O)O)C(=O)N[C@@H](CO)C(=O)NC(C)(C)C(=O)N[C@@H](C)C(=O)N[C@@H](CCC(N)=O)C(=O)N[C@@H](C)C(=O)N[C@@H](CC(=O)O)C(=O)N[C@@H](Cc1ccccc1)C(=O)N[C@H](C(=O)N[C@@H](CC(N)=O)C(=O)N[C@@H](Cc1c[nH]c2ccccc12)C(=O)N[C@@H](CC(C)C)C(=O)N[C@@H](CC(C)C)C(=O)N[C@@H](C)C(=O)N[C@@H](CCC(N)=O)C(=O)N[C@@H](CCCNC(=N)N)C(=O)NCC(=O)O)C(C)C)[C@@H](C)CC [Compound 152] |  |  |  | 33.1 | ≥ 15 | ≥ 30 |
